Consider 4 compounds from patent US9943471B2, “Beta-2-adrenergic receptor agonist for improving skin scar colour matching” (UNIVERSITY OF LEICESTER, priority 2013, dated 2018).

For one experiment, the system named is melanocytes. The note with it: cited from earlier work.
Another experiment has as its system age spots. The settings on record: added topically, Chinese females with age spots; cited from earlier work.
Another experiment concerns melanoma cells. The settings on record: cited from earlier work.
The subject of another experiment is βARs. Also noted: dose or concentration left out as unconfirmed. The note with it: cited from earlier work.
Experiment [1] has as its system full-thickness wounds, Red Duroc pig. Kind of experiment: Red Duroc pig wound scar study: scar area and wound area. Format: in vivo. Also on record: scar area reduction / scar area smaller than control wounds / wound area smaller than control (less swollen) / wound area larger than control (less contracted): concentration or dose not given beside the values. As to the method:
A porcine wound scar study was conducted in the Red Duroc pig. 4 rows of 5 (2×2 cm) full-thickness wounds were created, either side of the spine, on the shaved backs of 10 Red Durocs (FIGS. 1, 4). […] Two wounds per animal were biopsied (6 mm punch) at 7, 14, 21, 28 and 42 days post wounding. The remaining 10 wound scars per animal were photographed and harvested at day 56 post-wounding, giving a total of 5 wounds per position, 50 wounds in total for each group. The scar closest to the average scar area, at each position, for both control and sal-treated wounds are presented (FIG. 5b). […] Indeed, by day 28 and 42 post-wounding the scar area of the sal-treated wounds was already 34.1% and 37.7% smaller than control wounds (FIG. 6a; ***P<0.001). Wound area was also measured in early time points.

For experiment [2] the test system is unchanged. Kind of experiment: Red Duroc pig wound scar study: scar scale scores. Format: in vivo. From the text: Anatomically and physiologically, porcine skin is very similar to human skin [19]. Wounds in small mammal skin, which is untethered, heal primarily by wound contraction, whereas porcine and human skin wounds close primarily by wound re-epithelialisation. The Red Duroc pig is well established as a reproducible model of fibro proliferative and hypertrophic scar formation. Similar to human hypertrophic scars, Red Duroc pigs heal wounds with an excessive amount of collagen deposition and increased wound contraction. In addition, the wounds heal with hyperpigmentation at the wound margins creating hyperpigmented scars and the scars are raised, similar to human scars. […] A porcine wound scar study was conducted in the Red Duroc pig. 4 rows of 5 (2×2 cm) full-thickness wounds were created, either side of the spine, on the shaved backs of 10 Red Durocs (FIGS. 1, 4). […] Two wounds per animal were biopsied (6 mm punch) at 7, 14, 21, 28 and 42 days post wounding. The remaining 10 wound scars per animal were photographed and harvested at day 56 post-wounding, giving a total of 5 wounds per position, 50 wounds in total for each group. A number of scales have been developed to score the severity of human scars. The Vancouver scar scale (VSS), the Manchester scar scale (MSS) and the patient and observer scar assessment scale (POSAS). We developed our own scale to score the severity of the Red Duroc scars based on the VSS [7] and the MSS [8]. The patient and observer scar assessment scale (POSAS) could not be used as it requires patient involvement. The VSS measures four parameters: pigmentation, vascularity, pliability and height, while the MSS measures colour, contour, distortion and texture. Our scar scale was developed to score a number of scar characteristics including: pigmentation, colour match with surrounding tissue, skin sheen, pliability, texture and height contour.

[3] abbreviates: 5 mM in Granugel, 500 μl per wound daily, day 56, vs control.

Read-outs that look alike come from different tables or passages of the source.

In the case of `CNCC(O)c1ccc(O)c(O)c1` (stereo not drawn) [Adrenaline, adrenaline], the entries for the “melanin production / melanogenesis in melanocytes” value in the experiment on melanocytes and with melanocytes (listed as Epinephrine) were “increased melanin production” and “increases melanin synthesis”, respectively.
With `C=CCCCCCCCCC(=O)N[C@@H](Cc1ccccc1)C(=O)O` [undecylenoyl phenylalanine], the skin lightening entry with age spots is given as “skin lightening effect”. For the same compound, the melanin production result in the experiment with melanoma cells is on record as “suppressed melanin production”.
As to `NC[C@H](O)c1ccc(O)c(O)c1` [noradrenaline], in the experiment on melanocytes, the “melanin production / melanogenesis in melanocytes” value was “no effect”.
Turning to `CC(C)(C)NCC(O)c1ccc(O)c(CO)c1` (stereo not drawn) [salbutamol], the “activation of βARs” value in the experiment on βARs is recorded as “activate all βARs”. In addition, the scar area reduction in experiment [1] (56 days post wounding, vs control) was found to be 47.1%. Also, the “wound area smaller than control (less swollen)” value in experiment [1] (after 7 days) is 11%. Further, the “wound area larger than control (less contracted)” value in experiment [1] (after 14 days) is listed as 23%. The “wound area vs control wounds” value in experiment [1] (by 28 days) is “slightly smaller”. In experiment [1] (day 28 post-wounding), the “scar area smaller than control wounds” value stood at 34.1%. Besides, the “scar area smaller than control wounds” value in experiment [1] (day 42 post-wounding) came to 37.7%. For the same compound, the “re-epithelialisation rate vs control wounds” value in experiment [1] (early time points) is on record as “No significant difference”. Moreover, the cAMP levels result in the experiment on melanocytes (melanocytes, in association with increased melanogenesis) was “enhances cAMP levels”. For the same compound, in experiment [2] (setting [3]), the “improvement of colour match score” value was 44%, the “improvement of height contour score” value amounted to 34%, the “improvement of pigmentation score” value turned out to be 48% and the “improvement of pliability score” value came out at 22%. In experiment [2] (setting [3]), the “improvement of sheen score” value was determined as 53% and the “improvement of texture score” value turned out to be 22%. The “scar appearance vs control scars” value in experiment [2] (day 56 post-wounding, P<0.0001) was “less hyper-pigmented”.
